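Each compound was tested at five concentrations against cells in 96-well plates for 48 hours. GI50 = concentration required for 50% inhibition of growth.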 Activity calls are given as the source filed them. Rule as the data show it: active = GI50 up to about 1.1 µM and inactive = higher.
Assays:
Experiment in all cases: NCI tumour cell line growth inhibition, 48 h
TK-10 = system: TK-10
UO-31 = system: UO-31
COLO 205 = system: COLO 205
UACC-62 = system: UACC-62
SK-MEL-28 = system: SK-MEL-28
SF-268 = system: SF-268
OVCAR-4 = system: OVCAR-4
LOX IMVI = system: LOX IMVI
KM12 = system: KM12
NCI-H23 = system: NCI-H23
HT-29 = system: HT-29
HCT-116 = system: HCT-116
SNB-19 = system: SNB-19
SN12C = system: SN12C
OVCAR-3 = system: OVCAR-3
IGROV-1 = system: IGROV-1
A549 = system: A549
K562 = system: K562
SK-MEL-5 = system: SK-MEL-5
SNB-75 = system: SNB-75

Measured: GI50

OC12c3ccccc3C1CCCCCCCCCC21OCCCO1 (stereo not given)
inactive: TK-10 > 100 µM | UO-31 > 100 µM | COLO 205 > 100 µM | UACC-62 > 100 µM | SK-MEL-28 > 100 µM | SF-268 > 100 µM | OVCAR-4 > 100 µM | LOX IMVI > 100 µM | KM12 > 100 µM | NCI-H23 > 100 µM | HT-29 > 100 µM | HCT-116 4.06 µM | SNB-19 > 100 µM | SN12C > 100 µM | OVCAR-3 > 100 µM | IGROV-1 > 100 µM | A549 > 100 µM | K562 5.09 µM | SK-MEL-5 > 100 µM | SNB-75 > 100 µM

CCN(CC)CCC(=O)c1ccccc1
inactive: TK-10 21.3 µM | UO-31 31.3 µM | COLO 205 > 10 µM | UACC-62 > 10 µM | SK-MEL-28 16.9 µM | SF-268 17.8 µM | OVCAR-4 20.5 µM | LOX IMVI 19.4 µM | KM12 43.4 µM | NCI-H23 19.1 µM | HT-29 28.2 µM | HCT-116 17.3 µM | SNB-19 > 100 µM | SN12C 19.3 µM | OVCAR-3 18.6 µM | IGROV-1 > 100 µM | A549 > 100 µM | K562 7.45 µM | SK-MEL-5 91 µM | SNB-75 12.5 µM
